Source: ChEMBL document CHEMBL1129133 (Bioorg Med Chem Lett, 1996)

Key:
[1] = Lipophilicity was determined; assay type: physicochemical; conditions: octanol/water
Phosphodiesterase 1 = Phosphodiesterase 1 (Rattus norvegicus, UniProt Q63421+Q9EPR9+Q01066); test: Inhibition of Phosphodiesterase 1 from rat liver
[2] = target: cGMP-specific 3',5'-cyclic phosphodiesterase (Homo sapiens, UniProt O76074); test: Inhibition of Phosphodiesterase 5 from human corpus cavernosum
Phosphodiesterase 3 = Phosphodiesterase 3 (Homo sapiens, UniProt Q14432+Q13370); test: Inhibition of Phosphodiesterase 3 from rabbit platelets; parameters: species or system Oryctolagus cuniculus; conditions: target entry is the homologue from another species

With CCCc1nn(C)c2c(=O)[nH]c(-c3cc(S(=O)(=O)N4CCN(C)CC4)ccc3OCC)nc12 the logD [1] was 2.7.

CCCc1n[nH]c2c(O)nc(-c3ccccc3OCC)nc12 gave an IC50 (Phosphodiesterase 1) of 0.86 µM and an IC50 [2] of 0.082 µM.

Work on CCCc1n[nH]c2c(O)nc(-c3ccccc3O)nc12 yielded an IC50 (Phosphodiesterase 3) greater than 100 µM.

CCCc1n[nH]c2c(=O)[nH]c(-c3ccccc3)nc12 showed an IC50 (Phosphodiesterase 3) of 63 µM.

Compound CCCc1nn(C)c2c(O)nc(-c3cc(S(=O)(=O)N4CCN(C(N)=O)CC4)ccc3OCC)nc12 has a logD [1] of 2.3, an IC50 (Phosphodiesterase 1) of 0.11 µM and an IC50 (Phosphodiesterase 3) of 34 µM.

Compound CCOc1ccccc1-c1nc2c(C)nn(C)c2c(=O)[nH]1 has an IC50 (Phosphodiesterase 1) of 3.3 µM and an IC50 (Phosphodiesterase 3) greater than 100 µM.

CCCc1nn(C)c2c(=O)[nH]c(-c3ccccc3[N+](=O)[O-])nc12 showed an IC50 (Phosphodiesterase 3) greater than 100 µM.

For CCCc1nn(C)c2c(=O)[nH]c(-c3ccccc3OCC3CC3)nc12, the IC50 (Phosphodiesterase 3) was 47 µM.

For CCCc1nn(C)c2c(=O)[nH]c(-c3ccccc3NS(C)(=O)=O)nc12, the IC50 (Phosphodiesterase 3) was 83 µM.

For CCCc1nn(C)c2c(=O)[nH]c(-c3ccccc3OCC)nc12, the logD [1] was 4, the IC50 (Phosphodiesterase 1) was 0.79 µM and the IC50 [2] was 0.027 µM. For the same compound, the IC50 (Phosphodiesterase 3) was greater than 100 µM.

CCCc1nn(C)c2c(=O)[nH]c(-c3cc(S(=O)(=O)N4CCNCC4)ccc3OCC)nc12 showed a logD [1] of 1.5, an IC50 (Phosphodiesterase 1) of 0.39 µM and an IC50 (Phosphodiesterase 3) greater than 100 µM.

For CCCc1nn(C)c2c(=O)[nH]c(-c3cc(S(=O)(=O)N4CCN(CCO)CC4)ccc3OCC)nc12 [LODENAFIL], the logD [1] was 2, the IC50 (Phosphodiesterase 1) was 0.46 µM and the IC50 (Phosphodiesterase 3) was 62 µM.

CCCOc1ccccc1-c1nc2[nH]nnc2c(=O)[nH]1 [ZAPRINAST] showed an IC50 (Phosphodiesterase 1) of 9.4 µM and an IC50 (Phosphodiesterase 3) greater than 100 µM.
